Data reported in patent US10508104B2, “6-hydroxy-5-(phenyl/heteroarylsulfonyl)pyrimidin-4(1H)-one as APJ agonists” (Bristol-Myers Squibb Company, priority 2016, dated 2019).

target: human APJ receptor (Homo sapiens (Human), UniProt P35414); assay: Intracellular cAMP accumulation assay (APJ hcAMP, HTRF); type: cell-based; conditions: HEK293 cells stably expressing human APJ receptor; inhibition of forskolin-mediated cAMP production; read-out: Human APJ cAMP EC50 Potency range
Experimental: Intracellular cAMP Accumulation Assay
HEK293 cells stably expressing human APJ receptor were used to assess the activity of compounds. Cultured cells were detached and resuspended in the cAMP Homogeneous Time-Resolved Fluorescence (HTRF) assay buffer (Cisbio cat; #62AM4PEJ). The assay was performed in 384-well assay plates (Perkin-Elmer; cat #6008289) according to assay protocol provided by the manufacturer. Serial dilutions of a compound together with assay buffer containing […] and 2 μM forskolin were added to each well containing 5,000 cells and incubated for 30 minutes at room temperature. Subsequently, cAMP D2 reagent was added in the lysis buffer followed by the EuK antibody (Cisbio; cat #62AM4PEJ) and incubated for 60 min. The fluorescence emission ratio was measured using fluorometer. The intracellular cAMP concentrations (compound-stimulated inhibition of forskolin-mediated cAMP production) were calculated by extrapolation from a standard curve using known cAMP concentrations. The EC50 values were obtained by fitting the data to a sigmoidal concentration-response curve with variable slope.
The EC50 value of each compound is presented at the end of the example description.
The biological activity of the exemplified compounds of this invention determined by the assay described above is shown at the end of each example.

Sequence of human APJ receptor (P35414 whole entry): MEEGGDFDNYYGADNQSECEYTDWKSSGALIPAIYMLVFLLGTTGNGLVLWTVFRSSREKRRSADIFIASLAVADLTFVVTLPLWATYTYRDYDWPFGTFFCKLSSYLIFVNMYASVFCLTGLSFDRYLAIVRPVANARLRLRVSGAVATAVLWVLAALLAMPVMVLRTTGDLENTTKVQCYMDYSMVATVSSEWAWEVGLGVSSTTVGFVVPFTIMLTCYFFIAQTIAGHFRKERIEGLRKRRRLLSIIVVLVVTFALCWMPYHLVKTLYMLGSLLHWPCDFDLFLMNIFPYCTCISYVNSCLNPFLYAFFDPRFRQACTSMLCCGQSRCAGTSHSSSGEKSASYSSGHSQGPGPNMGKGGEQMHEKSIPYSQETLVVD

EC50	Molecule
0.01 to 10 nM	CCCCc1nc(=O)c(S(=O)(=O)c2ccc(Br)cc2)c(O)n1-c1c(OC)cccc1OC [Example 1, 5-((4-Bromophenyl)sulfonyl)-2-butyl-1-(2,6-dimethoxyphenyl)-6-hydroxypyrimidin-4(1H)-one]
0.01 to 10 nM	CCCCc1nc(=O)c(S(=O)(=O)c2ccc(-c3ccc(F)cc3)cc2)c(O)n1-c1c(OC)cccc1OC [Example 7, 2-Butyl-1-(2,6-dimethoxyphenyl)-5-((4′-fluoro-[1,1′-biphenyl]-4-yl)sulfonyl)-6-hydroxypyrimidin-4(1H)-one]

same assay, conditions: human APJ, cAMP accumulation; read-out: Human APJ cAMP EC50 Potency range

Molecule	EC50
COC[C@@H](c1ccccc1)n1c(C2CCCO2)nc(=O)c(S(=O)(=O)c2ccc(-c3ccnc(F)c3C)cc2)c1O (mixture of isomers) [Example 353, 5-[4-(2-fluoro-3-methylpyridin-4-yl)benzenesulfonyl]-6-hydroxy-1-[(1R)-2-methoxy-1-phenylethyl]-2-(oxolan-2-yl)-1,4-dihydropyrimidin-4-one]	0.01 to 10 nM
COC[C@@H](c1ccccc1)n1c(C2CCCO2)nc(=O)c(S(=O)(=O)c2ccc(-c3ccc(F)nc3C)cc2)c1O (mixture of isomers) [Example 355, 5-[4-(6-fluoro-2-methylpyridin-3-yl)benzenesulfonyl]-6-hydroxy-1-[(1R)-2-methoxy-1-phenylethyl]-2-(oxolan-2-yl)-1,4-dihydropyrimidin-4-one]	0.01 to 10 nM
COC[C@@H](c1ccccc1)n1c(C2CCCO2)nc(=O)c(S(=O)(=O)c2ccc(-c3ccncc3C)cc2)c1O (single isomer, unassigned) [Example 350]	0.01 to 10 nM
COC[C@@H](c1ccccc1)n1c(C2CCCO2)nc(=O)c(S(=O)(=O)c2ccc(-c3ccc(F)nc3)cc2)c1O (single isomer, unassigned) [Example 358]	0.01 to 10 nM

Further lines, results first:

EC50	Molecule
0.01 to 10 nM	COC[C@@H](c1ccccc1)n1c(C2CCCO2)nc(=O)c(S(=O)(=O)c2ccc(-c3ccc(F)nc3)cc2)c1O (mixture of isomers) [Example 354, 5-[4-(6-fluoropyridin-3-yl)benzenesulfonyl]-6-hydroxy-1-[(1R)-2-methoxy-1-phenylethyl]-2-(oxolan-2-yl)-1,4-dihydropyrimidin-4-one]
0.01 to 10 nM	COC[C@@H](c1ccccc1)n1c(C2CCCO2)nc(=O)c(S(=O)(=O)c2ccc(-c3ccncc3C)cc2)c1O (single isomer, unassigned) [Example 351]
0.01 to 10 nM	COC[C@@H](c1ccccc1)n1c(C2CCCO2)nc(=O)c(S(=O)(=O)c2ccc(-c3ccncc3C)cc2)c1O (single isomer, unassigned) [Example 352]
0.01 to 10 nM	COC[C@@H](c1ccccc1)n1c(C2CCCO2)nc(=O)c(S(=O)(=O)c2ccc(-c3ccc(F)nc3C)cc2)c1O (single isomer, unassigned) [Example 356]
0.01 to 10 nM	COC[C@@H](c1ccccc1)n1c(C2CCCO2)nc(=O)c(S(=O)(=O)c2ccc(-c3ccc(F)nc3C)cc2)c1O (single isomer, unassigned) [Example 357]
0.01 to 10 nM	COC[C@@H](c1ccccc1)n1c(C2CCCO2)nc(=O)c(S(=O)(=O)c2ccc(-c3ccc(F)nc3)cc2)c1O (single isomer, unassigned) [Example 359]

same assay, conditions: human APJ, intracellular cAMP accumulation; read-out: Human APJ cAMP EC50 Potency range

Molecule	EC50
5-(4- bromobenzenesulfonyl)- 2-butyl-3- [cyclopropyl(phenyl) methyl]-6-hydroxy-3,4- dihydropyrimidin-4-one [Example 186]	10 to 100 nM
5-(4- bromobenzenesulfonyl)- 2-butyl-3-[(1S)-1-(3- chlorophenyl)propyl]-6- hydroxy-3,4- dihydropyrimidin-4-one [Example 188]	10 to 100 nM
CCCCc1nc(=O)c(S(=O)(=O)c2ccccc2)c(O)n1-c1c(OC)cccc1OC [Example 2, 5-(benzenesulfonyl)-2-butyl-1-(2,6-dimethoxyphenyl)-6-hydroxy-1,4-dihydropyrimidin-4-one]	0.01 to 10 nM
CCCCc1nc(=O)c(S(=O)(=O)c2ccc(-c3ccccc3)cc2)c(O)n1-c1c(OC)cccc1OC [Example 8, 2-butyl-1-(2,6-dimethoxyphenyl)-6-hydroxy-5-(4-phenylbenzenesulfonyl)-1,4-dihydropyrimidin-4-one]	0.01 to 10 nM
CCCCc1nc(=O)c(S(=O)(=O)c2ccc(-c3cn(C)nc3C(F)(F)F)cc2)c(O)n1-c1c(OC)cccc1OC [Example 9, 2-butyl-1-(2,6-dimethoxyphenyl)-6-hydroxy-5-{4-[1-methyl-3-(trifluoromethyl)-1H-pyrazol-4-yl]benzenesulfonyl}-1,4-dihydropyrimidin-4-one]	0.01 to 10 nM
CCCCc1nc(=O)c(S(=O)(=O)c2ccc(-c3cnn(C(C)C)c3)cc2)c(O)n1-c1c(OC)cccc1OC [Example 10, 2-butyl-1-(2,6-dimethoxyphenyl)-6-hydroxy-5-{4-[1-(propan-2-yl)-1H-pyrazol-4-yl]benzenesulfonyl}-1,4-dihydropyrimidin-4-one]	0.01 to 10 nM
COc1cccc(OC)c1-n1c(CCC(C)C)nc(=O)c(S(=O)(=O)c2ccc(-c3ccccc3)cc2)c1O [Example 11, 1-(2,6-dimethoxyphenyl)-6-hydroxy-2-(3-methylbutyl)-5-(4-phenylbenzenesulfonyl)-1,4-dihydropyrimidin-4-one]	0.01 to 10 nM
CCCCc1nc(=O)c(S(=O)(=O)c2ccc(-c3ccc(F)nc3)cc2)c(O)n1-c1c(OC)cccc1OC [Example 15, 2-butyl-1-(2,6-dimethoxyphenyl)-5-[4-(6-fluoropyridin-3-yl)benzenesulfonyl]-6-hydroxy-1,4-dihydropyrimidin-4-one]	0.01 to 10 nM

Next, values leading:

EC50	Molecule
0.01 to 10 nM	CCCCc1nc(=O)c(S(=O)(=O)c2ccc(Cl)cc2)c(O)n1-c1c(OC)cccc1OC [Example 3, 2-butyl-5-(4-chlorobenzenesulfonyl)-1-(2,6-dimethoxyphenyl)-6-hydroxy-1,4-dihydropyrimidin-4-one]
0.01 to 10 nM	CCCCc1nc(=O)c(S(=O)(=O)c2ccc(F)cc2)c(O)n1-c1c(OC)cccc1OC [Example 4, 2-butyl-1-(2,6-dimethoxyphenyl)-5-(4-fluorobenzenesulfonyl)-6-hydroxy-1,4-dihydropyrimidin-4-one]
10 to 100 nM	CCCCc1nc(=O)c(S(=O)(=O)Cc2ccccc2)c(O)n1-c1c(OC)cccc1OC [Example 5, 2-butyl-1-(2,6-dimethoxyphenyl)-6-hydroxy-5-phenylmethanesulfonyl-1,4-dihydropyrimidin-4-one]
0.01 to 10 nM	CCCCc1nc(=O)c(S(=O)(=O)c2ccc(C(F)(F)F)cn2)c(O)n1-c1c(OC)cccc1OC [Example 6, 2-butyl-1-(2,6-dimethoxyphenyl)-6-hydroxy-5-{[5-(trifluoromethyl)pyridin-2-yl]sulfonyl}-1,4-dihydropyrimidin-4-one]
0.01 to 10 nM	COc1cccc(OC)c1-n1c(CCC(C)C)nc(=O)c(S(=O)(=O)c2ccc(-c3ccc(F)cc3)cc2)c1O [Example 12, 1-(2,6-dimethoxyphenyl)-5-[4-(4-fluorophenyl)benzene-sulfonyl]-6-hydroxy-2-(3-methylbutyl)-1,4-dihydropyrimidin-4-one]
0.01 to 10 nM	COc1cccc(OC)c1-n1c(CCC(C)C)nc(=O)c(S(=O)(=O)c2ccc(-c3ccc(Cl)cc3)cc2)c1O [Example 14, 5-[4-(4-chlorophenyl)benzene-sulfonyl]-1-(2,6-dimethoxyphenyl)-6-hydroxy-2-(3-methylbutyl)-1,4-dihydropyrimidin-4-one]
